Three compounds from article PMC3040873, “Design, Synthesis and antiHIV activity of Novel Isatine-Sulphonamides” (Indian Journal of Pharmaceutical Sciences, 2008) can be followed below.

SMILES strings stand for the structures.

The experiment deals with T1, HIV-1 integrase (HIV-1 M:B_HXB2R, UniProt P04585).
T1 construct: gene gag-pol; WT integrase, cut from Gag-Pol polyprotein
In words: ELISA overall integration assay, biotin / digoxigenin labelled oligonucleotides. The format is biochemical. The following applies: overall integration reaction; 10 mM MgCl2, 5 mM DTT, 20 mM HEPES pH 7.5, 5% PEG, 15% DMSO, 37 °C, 1 h. The source says:
ELISA overall integration assay, biotin / digoxigenin labelled oligonucleotides on HIV-1 integrase
(In general: In an ELISA, binding on a coated surface is turned into a signal by an enzyme label.)
In the case of `CC(=O)N1C(=O)C(=Nc2ccc(S(=O)(=O)Nc3nc(C)cc(C)n3)cc2)c2cc(Br)ccc21` [SPIII-5Br-AC], the “IC50 ^a (μM/ml)” value is recorded as above 250 μM/ml.

Turning to `CC(=O)N1C(=O)C(=Nc2ccc(S(=O)(=O)Nc3nc(C)cc(C)n3)cc2)c2cc(C)ccc21` [SPIII-5Me-AC, 4-(1-acetyl-5-methyl-2-oxoindolin-3-ylideneamino)-N-(4,6-dimethylpyrimidin-2-yl)benzenesulfonamide], the “IC50 ^a (μM/ml)” value stood at 53.62±11.67 μM/ml.

For `Cc1cc(C)nc(NS(=O)(=O)c2ccc(N=C3C(=O)N(C(=O)c4ccccc4)c4ccc(Br)cc43)cc2)n1` [SPIII-5Br-BZ], the “IC50 ^a (μM/ml)” value is recorded as above 250 μM/ml.
